Laboratory results published in PubChem BioAssay (NCI).
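Briefly, cells in 96-well plates were exposed to five compound concentrations for 48 h, and endpoints were estimated by linear interpolation. At the TGI there is no net growth.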

Legend:
Assay in all cases: NCI tumour cell line growth inhibition, 48 h
SF-295 CNS = tested on: SF-295 CNS
DMS 273 small cell lung = tested on: DMS 273 small cell lung
HOP-92 NSCLC = tested on: HOP-92 NSCLC
SR leukemia = tested on: SR leukemia
OVCAR-5 ovarian = tested on: OVCAR-5 ovarian
HL-60(TB) leukemia = tested on: HL-60(TB) leukemia
MOLT-4 leukemia = tested on: MOLT-4 leukemia
RPMI-8226 leukemia = tested on: RPMI-8226 leukemia
HT29 colon = tested on: HT29 colon
U251 CNS = tested on: U251 CNS
IGROV1 ovarian = tested on: IGROV1 ovarian
SK-MEL-5 melanoma = tested on: SK-MEL-5 melanoma
SF-268 CNS = tested on: SF-268 CNS
SN12C renal = tested on: SN12C renal
ACHN renal = tested on: ACHN renal
CCRF-CEM leukemia = tested on: CCRF-CEM leukemia
CAKI-1 renal = tested on: CAKI-1 renal
NCI-H522 lung = tested on: NCI-H522 lung
MDA-N = tested on: MDA-N
BT-549 breast = tested on: BT-549 breast

Measured: TGI

Nc1c(-c2ccccc2[N+](=O)[O-])nc2ccccn12
not listed: CAKI-1 renal | NCI-H522 lung | MDA-N | BT-549 breast
> 100 µM: all other assays above

CCOC(=O)CCC(NC(=O)OCc1ccccc1)C(=O)NC(CCC(=O)OCC)C(=O)NNC(=O)OC(C)(C)C (configuration not stated)
not listed: DMS 273 small cell lung | HT29 colon | SF-268 CNS | ACHN renal
> 100 µM: all other assays above
